According to US12612360B2 (Sanofi, priority 2020, dated 2026):

Molecular target: T1, ERα (Homo sapiens, UniProt P03372)
T1 construct: host or cells: MCF7
T1 sequence (P03372 1-595): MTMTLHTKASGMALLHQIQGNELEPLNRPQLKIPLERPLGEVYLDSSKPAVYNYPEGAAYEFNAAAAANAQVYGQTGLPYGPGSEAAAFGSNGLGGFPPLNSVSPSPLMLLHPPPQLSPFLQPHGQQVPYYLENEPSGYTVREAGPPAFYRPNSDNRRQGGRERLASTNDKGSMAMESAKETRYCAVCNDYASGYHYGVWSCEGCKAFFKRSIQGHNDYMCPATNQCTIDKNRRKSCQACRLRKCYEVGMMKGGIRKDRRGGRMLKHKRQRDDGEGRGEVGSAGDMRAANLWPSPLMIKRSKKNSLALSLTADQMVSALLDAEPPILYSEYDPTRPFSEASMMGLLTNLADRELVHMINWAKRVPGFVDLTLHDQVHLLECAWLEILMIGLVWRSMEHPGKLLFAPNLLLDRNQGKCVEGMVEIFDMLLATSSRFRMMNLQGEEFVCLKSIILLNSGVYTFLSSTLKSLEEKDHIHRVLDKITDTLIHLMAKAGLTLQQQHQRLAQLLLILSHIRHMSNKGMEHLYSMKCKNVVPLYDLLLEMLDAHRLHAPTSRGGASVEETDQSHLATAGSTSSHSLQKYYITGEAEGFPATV
Experiment: Estrogen receptor degradation activity: breast cancer cell ERα in cell western assay (MCF7 cells)
Type: cell-based
Details: for % Degradation At 0.3 μM: 4 hours, relative to fulvestrant 0.1 μM positive control; for DC50: 4 hours post compound addition, concentration which degrades 50% of the estrogen receptor, read-out: Degradation IC50
Procedure, shortened: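 In-cell western readout: ERα immunofluorescence (Alexa 488) normalised to DNA signal (Syto-64) after formalin fixation. Compounds dosed for 4 h on MCF7 cells in stripped-serum, phenol-red-free medium over nine 1:5 steps, 0.3 to […] final; fulvestrant 0.1 μM control. IC50 in nM for 50% ERα degradation.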

Compound | % Degradation At 0.3 μM [%] | DC50 [pM]
COc1ccc(C2=C(c3ccc(C=C4CN(CCCF)C4)cc3)c3ccc(C(=O)O)cc3CCC2)cc1C(F)(F)F [Example 148, 9-(4-((1-(3-fluoropropyl)azetidin-3-ylidene)methyl)phenyl)-8-(4-methoxy-3-(trifluoromethyl)phenyl)-6,7-dihydro-5H-benzo[7]annulene-3-carboxylic acid] | 90 | 1200
O=C(O)c1ccc2c(c1)CCCC(c1ccc(Cl)cc1)=C2c1ccc(C=C2CN(CCCF)C2)cc1 [Example 181, 8-(4-chlorophenyl)-9-(4-((1-(3-fluoropropyl)azetidin-3-ylidene)methyl)phenyl)-6,7-dihydro-5H-benzo[7]annulene-3-carboxylic acid] | 91 | 500
COc1ccc(C(F)(F)F)cc1C1=C(c2ccc(C=C3CN(CCCF)C3)cc2)c2ccc(C(=O)O)cc2CCC1 [Example 137] | 92 | 3700
Cc1cc(Cl)ccc1C1=C(c2ccc(C=C3CN(CCC(F)F)C3)cc2)c2ccc(C(=O)O)cc2CCC1 [Example 132, 8-(4-chloro-2-methylphenyl)-9-(4-((1-(3,3-difluoropropyl)azetidin-3-ylidene)methyl)phenyl)-6,7-dihydro-5H-benzo[7]annulene-3-carboxylic acid] | 95 | 800
Cc1cc(F)ccc1C1=C(c2ccc(C=C3CN(CCCF)C3)cc2)c2ccc(C(=O)O)cc2CCC1 [Example 98, 8-(4-fluoro-2-methylphenyl)-9-(4-((1-(3-fluoropropyl)azetidin-3-ylidene)methyl)phenyl)-6,7-dihydro-5H-benzo[7]annulene-3-carboxylic acid] | 96 | 300
O=C(O)c1ccc2c(c1)CCCC(c1ncc(Cl)cc1C(F)(F)F)=C2c1ccc(C=C2CN(CCC(F)F)C2)cc1 [Example 125, 8-(5-chloro-3-(trifluoromethyl)pyridin-2-yl)-9-(4-((1-(3,3-difluoropropyl)azetidin-3-ylidene)methyl)phenyl)-6,7-dihydro-5H-benzo[7]annulene-3-carboxylic acid] | 91 | 700
CC1(C)CCCC(C2=C(c3ccc(C=C4CN(CCCF)C4)cc3)c3ccc(C(=O)O)cc3CCC2)C1 (single isomer, unassigned) [Example 172, 8-(3,3-dimethylcyclohexyl)-9-(4-((1-(3-fluoropropyl)azetidin-3-ylidene)methyl)phenyl)-6,7-dihydro-5H-benzo[7]annulene-3-carboxylic acid] | 89 | 400
O=C(O)c1ccc2c(c1)CCCC(c1cccc3c1CCC3(F)F)=C2c1ccc(C=C2CN(CCCF)C2)cc1 [Example 9, 8-(1,1-difluoro-2,3-dihydro-1H-inden-4-yl)-9-(4-((1-(3-fluoropropyl)azetidin-3-ylidene)methyl)phenyl)-6,7-dihydro-5H-benzo[7]annulene-3-carboxylic acid] | 90 | 600
O=C(O)c1ccc2c(c1)CCCC(c1ccc(F)cc1C(F)(F)F)=C2c1ccc(C=C2CN(CCCF)C2)cc1 [Example 95, 8-(4-fluoro-2-(trifluoromethyl)phenyl)-9-(4-((1-(3-fluoropropyl)azetidin-3-ylidene)methyl)phenyl)-6,7-dihydro-5H-benzo[7]annulene-3-carboxylic acid] | 94 | 200
COc1cc(C2=C(c3ccc(C=C4CN(CCCF)C4)cc3)c3ccc(C(=O)O)cc3CCC2)c(F)cn1 [Example 156, 8-(5-fluoro-2-methoxypyridin-4-yl)-9-(4-((1-(3-fluoropropyl)azetidin-3-ylidene)methyl)phenyl)-6,7-dihydro-5H-benzo[7]annulene-3-carboxylic acid] | 89 | 600
O=C(O)c1ccc2c(c1)CCCC(c1ccc(Cl)cc1Cl)=C2c1c(F)cc(C=C2CN(CCCF)C2)cc1F [Example 73, 8-(2,4-dichlorophenyl)-9-(2,6-difluoro-4-((1-(3-fluoropropyl)azetidin-3-ylidene)methyl)phenyl)-6,7-dihydro-5H-benzo[7]annulene-3-carboxylic acid] | 98 | 300
Cc1c(C2=C(c3ccc(C=C4CN(CCC(F)(F)F)C4)cc3)c3ccc(C(=O)O)cc3CCC2)ccc(Cl)c1F [Example 111, 8-(4-chloro-3-fluoro-2-methylphenyl)-9-(4-((1-(3,3,3-trifluoropropyl)azetidin-3-ylidene)methyl)phenyl)-6,7-dihydro-5H-benzo[7]annulene-3-carboxylic acid] | 90 | 1000
Cc1c(Cl)cccc1C1=C(c2ccc(C=C3CN(CCCF)C3)cc2)c2ccc(C(=O)O)cc2CCC1 [Example 72, 8-(3-chloro-2-methylphenyl)-9-(4-((1-(3-fluoropropyl)azetidin-3-ylidene)methyl)phenyl)-6,7-dihydro-5H-benzo[7]annulene-3-carboxylic acid] | 97 | 300
Cc1c(C2=C(c3ccc(F)cc3F)CCCc3cc(C(=O)O)ccc32)ccc(C=C2CN(CCCF)C2)c1F.Cl [Example 17, 8-(2,4-difluorophenyl)-9-(3-fluoro-4-((1-(3-fluoropropyl)azetidin-3-ylidene)methyl)-2-methylphenyl)-6,7-dihydro-5H-benzo[7]annulene-3-carboxylic acid hydrochloride] | 89 | 500
O=C(O)c1ccc2c(c1)CCCC(C1CC3CCC(C3)C1)=C2c1ccc(C=C2CN(CCCF)C2)cc1 (centres unmarked) [Example 178, 8-(bicyclo[3.2.1]octan-3-yl)-9-(4-((1-(3-fluoropropyl)azetidin-3-ylidene)methyl)phenyl)-6,7-dihydro-5H-benzo[7]annulene-3-carboxylic acid] | 95 | 1400
Cc1cc(C2=C(c3ccc(F)cc3C)CCCc3cc(C(=O)O)ccc32)c(C)cc1C=C1CN(CCCF)C1 [Example 45, 8-(4-fluoro-2-methylphenyl)-9-(4-((1-(3-fluoropropyl)azetidin-3-ylidene)methyl)-2,5-dimethylphenyl)-6,7-dihydro-5H-benzo[7]annulene-3-carboxylic acid] | 89 | 700
O=C(O)c1ccc2c(c1)CCCC([C@@H]1C[C@H]1C1CCC(F)(F)CC1)=C2c1ccc(C=C2CN(CCCF)C2)cc1 (racemic) [Example 187, 8-(trans-2-(4,4-difluorocyclohexyl)cyclopropyl)-9-(4-((1-(3-fluoropropyl)azetidin-3-ylidene)methyl)phenyl)-6,7-dihydro-5H-benzo[7]annulene-3-carboxylic acid] | 86 | 1600
Cc1c(C2=C(c3ccc(C=C4CN(CCCF)C4)cc3)c3ccc(C(=O)O)cc3CCC2)ccc(F)c1F [Example 29, 8-(3,4-difluoro-2-methylphenyl)-9-(4-((1-(3-fluoropropyl)azetidin-3-ylidene)methyl)phenyl)-6,7-dihydro-5H-benzo[7]annulene-3-carboxylic acid] | 96 | 300
Cc1cccc(C2=C(c3ccc(C=C4CN(CCC(F)F)C4)cc3)c3ccc(C(=O)O)cc3CCC2)c1Cl [Example 131, 8-(2-chloro-3-methylphenyl)-9-(4-((1-(3,3-difluoropropyl)azetidin-3-ylidene)methyl)phenyl)-6,7-dihydro-5H-benzo[7]annulene-3-carboxylic acid] | 95 | 1100
Cc1cc(F)ccc1C1=C(c2ccc(C=C3CN(CCCF)C3)c(F)c2F)c2ccc(C(=O)O)cc2CCC1 [Example 152, 9-(2,3-difluoro-4-((1-(3-fluoropropyl)azetidin-3-ylidene)methyl)phenyl)-8-(4-fluoro-2-methylphenyl)-6,7-dihydro-5H-benzo[7]annulene-3-carboxylic acid] | 93 | 200
Cl.O=C(O)c1ccc2c(c1)CCCC(c1ccc(Cl)cc1Cl)=C2c1ccc(C=C2CN(CCCF)C2)c(F)c1 [Example 103, 8-(2,4-dichlorophenyl)-9-(3-fluoro-4-((1-(3-fluoropropyl)azetidin-3-ylidene)methyl)phenyl)-6,7-dihydro-5H-benzo[7]annulene-3-carboxylic acid hydrochloride] | 92 | 200
Cc1c(F)ccc(C2=C(c3ccc(C=C4CN(CCC(F)F)C4)cc3)c3ccc(C(=O)O)cc3CCC2)c1C [Example 130, 9-(4-((1-(3,3-difluoropropyl)azetidin-3-ylidene)methyl)phenyl)-8-(4-fluoro-2,3-dimethylphenyl)-6,7-dihydro-5H-benzo[7]annulene-3-carboxylic acid] | 96 | 1600
